Reference: ChEMBL document CHEMBL3994641, “Design, synthesis, and cytotoxicity of stabilized mycolactone analogs” (Bioorg Med Chem Lett, 2017)

Legend:
[1] = Stability of the compound in 1 N HCl in water/0.1% Triton-X-100; format: physicochemical; settings: buffer
[2] = Stability of the compound in acetone irradiated with UV light at 1 mg after 2 to 72 hrs by 1H-NMR spectroscopy; format: physicochemical
[3] = Thermal stability of the compound in acetone under sunlight at 60 degreeC after 1 day; format: physicochemical; settings: 24 h
[4] = Drug metabolism assessed as initial E/Zdouble-bond isomerization followed by photocyclization in acetone irradiated with UV light at 1 mg after 2 to 72 hrs by 1H-NMR spectroscopy; format: physicochemical
[5] = tested on: L929; assay: Cytotoxicity against mouse L929 cells after 72 hrs by CellTiter blue staining based microscopic method; format: cell-based; settings: L929, 72 h
[6] = tested on: A549; assay: Cytotoxicity against human A549 cells after 72 hrs by CellTiter blue staining based microscopic method; format: functional, cell-based; settings: A549, 72 h
[7] = Stability of the compound in 0.1 M NaOH in MeOH at 0.5 mg after 14 hrs by 1H-NMR spectroscopy; format: physicochemical
[8] = Stability of the compound in 1 N NaOH in water/0.1% Triton-X-100; format: physicochemical; settings: buffer
[9] = tested on: HEK293; assay: Cytotoxicity against human HEK293 cells after 72 hrs by CellTiter blue staining based microscopic method; format: cell-based; settings: HEK293, 72 h
[10] = Stability of the compound in 0.1 M NaOH in MeOH at 0.5 mg after 2 hrs by 1H-NMR spectroscopy; format: physicochemical
[11] = Stability of the compound in 0.1 M HCl in MeOH at 0.5 mg after 2 hrs by 1H-NMR spectroscopy; format: physicochemical
[12] = Stability of the compound in 0.1 M HCl in MeOH at 0.5 mg after 8 hrs by 1H-NMR spectroscopy; format: physicochemical
[13] = Thermal stability of the compound in acetone under sunlight at 60 degreeC after 10 days; format: physicochemical; settings: 240 h
[14] = tested on: LOX IMVI; assay: Cytotoxicity against human LOXIMVI cells after 72 hrs by CellTiter blue staining based microscopic method; format: functional, cell-based
[15] = Drug metabolism assessed as compound decomposition in DMSO/EtOH at -20 degreeC after 3 years; format: physicochemical; settings: read-out: Drug metabolism
[16] = Solubility of the compound in water/0.1% Triton-X-100/NP-40; format: physicochemical; settings: buffer
[17] = Drug metabolism assessed as compound decomposition in 0.1 M HCl in MeOH at 0.5 mg after 8 hrs by 1H-NMR spectroscopy; format: physicochemical; settings: read-out: Drug metabolism
[18] = Drug metabolism assessed as compound decomposition in 0.1 M NaOH in MeOH at 0.5 mg after 14 hrs by 1H-NMR spectroscopy; format: physicochemical; settings: read-out: Drug metabolism
[19] = Drug metabolism assessed as E/Z double-bond isomerization by measuring delta4',5'-Z and delta4',5'-E isomers in acetone under sunlight at 60 degreeC after 10 days; format: physicochemical; settings: 240 h
[20] = Stability of the compound in DMSO/EtOH at -20 degreeC assessed as decomposition up to 1 month; format: physicochemical
[21] = Solubility of the compound in water; format: physicochemical; settings: buffer
[22] = Drug metabolism assessed as compound decomposition in neat at room temperature up to 10 days; format: physicochemical; settings: read-out: Drug metabolism
[23] = Drug metabolism assessed as E/Z double-bond isomerization by measuring delta4',5'-Z and delta4',5'-E isomers in acetone under sunlight at 60 degreeC after 1 day; format: physicochemical; settings: 24 h

Compound	Stability [1]	Stability [2]	Stability [3]	Drug metabolism [4]	IC50 [5] [nM]	IC50 [6] [nM]	Stability [7]	Stability [8]	IC50 [9] [nM]	Stability [10]	Stability [11]	Stability [12]	Stability [13]	IC50 [14] [nM]	other results
CC(/C=C/C(=O)O[C@H]1CCCC(=O)O[C@@H]([C@@H](C)C/C(C)=C/[C@@H](C)[C@H](O)C[C@@H](C)O)C/C=C(\C)C[C@@H]1C)=C\[C@@H](C)C/C=C/C(C)=C/[C@H](O)[C@@H](O)C[C@H](C)O	Stable	Stable	Stable	Metabolite_Notdetected	53	77	Stable	Stable	3	Stable	Stable	Stable	Stable	29	–
CC(/C=C/C(=O)O[C@H]1CCCC(=O)O[C@@H]([C@@H](C)C/C(C)=C/[C@@H](C)[C@H](O)C[C@@H](C)O)C/C=C(\C)C[C@@H]1C)=C\[C@H](C)C/C=C/C(C)=C/[C@H](O)[C@@H](O)C[C@H](C)O	Stable	Stable	Stable	Metabolite_Notdetected	63	400	Stable	Stable	83	Stable	Stable	Stable	Stable	120	–
CC(=CC(/C)=C/C=C/C(C)=C/[C@H](O)[C@@H](O)C[C@H](C)O)/C=C/C(=O)O[C@H]1CCCC(=O)O[C@@H]([C@@H](C)C/C(C)=C/[C@@H](C)[C@H](O)C[C@@H](C)O)C/C=C(\C)C[C@@H]1C (mixture of isomers)	Stable	–	Stable	Metabolite_Detected	13	0.77	–	Stable	3.2	Stable	Stable	–	Stable	6.9	degraded at 26298 h [15]: 20%; solubility [16]: Soluble; degraded at 8 h [17]: 80%; degraded at 14 h [18]: 90%; Drug metabolism [19]: Metabolite_Detected; Stability [20]: Stable; solubility [21]: Insoluble; degraded at 240 h [22]: 20 to 30%; Drug metabolism [23]: Metabolite_Detected
